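1) Cells in 96-well plates. 2) Compound, 48 h, 5 concentrations. 3) Linear interpolation between surrounding doses. 4) Unreached endpoint = highest concentration. Abbreviation: GI50, concentration required for 50% inhibition of growth. TGI marks complete inhibition of growth.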
Key:
Experiment in all cases: NCI-60 cell line screen, 48 h
[1] = system: SW-620 colon
[2] = system: OVCAR-5 ovarian
[3] = system: MOLT-4 leukemia
[4] = system: MCF7 breast
[5] = system: CAKI-1 renal
[6] = system: UACC-257 melanoma
[7] = system: HL-60(TB) leukemia
[8] = system: NCI-H460 lung
[9] = system: UO-31 renal
[10] = system: SF-295 CNS
[11] = system: T-47D breast
[12] = system: OVCAR-4 ovarian
[13] = system: A549 NSCLC
[14] = system: SF-539 CNS
[15] = system: SK-MEL-2 melanoma
[16] = system: COLO 205 colon
[17] = system: U251 CNS
[18] = system: CCRF-CEM leukemia
[19] = system: MDA-MB-435
[20] = system: DU-145 prostate
[21] = system: IGROV1 ovarian
[22] = system: NCI-H23 lung
[23] = system: MALME-3M melanoma
[24] = system: UACC-62 melanoma
[25] = system: OVCAR-8 ovarian
[26] = system: MDA-MB-231 breast
[27] = system: HS 578T breast
[28] = system: HCT-15 colon
[29] = system: BT-549 breast
[30] = system: HOP-62 NSCLC
[31] = system: EKVX NSCLC
[32] = system: SR leukemia
[33] = system: PC-3 prostate
[34] = system: SNB-75 CNS
[35] = system: SK-MEL-5 melanoma
[36] = system: HOP-92 NSCLC
[37] = system: A498 renal
[38] = system: M14 melanoma
[39] = system: HCT-116 colon
[40] = system: SK-OV-3 ovarian
[41] = system: K-562 leukemia
[42] = system: RXF 393 renal
[43] = system: HCC-2998 colon
[44] = system: KM12 colon
[45] = system: TK-10 renal
[46] = system: SK-MEL-28 melanoma
[47] = system: NCI-H522 lung
[48] = system: ACHN renal
[49] = system: NCI-H226 lung
[50] = system: SNB-19 CNS
[51] = system: 786-0 renal
[52] = system: SN12C renal
[53] = system: SF-268 CNS
[54] = system: NCI/ADR-RES ovarian
[55] = system: HT29 colon

NS(=O)(=O)c1ccc(Nc2nc(N/N=C/c3ccc(C(F)(F)F)cc3)nc(Nc3ccccc3)n2)cc1
GI50 [1]: 3.3 µM
TGI [1]: 11.1 µM
GI50 [2]: 2.96 µM
TGI [2]: 11 µM
GI50 [3]: 3.06 µM
TGI [3]: 14.4 µM
GI50 [4]: 2.18 µM
TGI [4]: 7.37 µM
GI50 [5]: 3.05 µM
TGI [5]: 9.93 µM
GI50 [6]: 2.42 µM
TGI [6]: 7.26 µM
GI50 [7]: 3.59 µM
TGI [7]: > 100 µM
GI50 [8]: 3.02 µM
TGI [8]: 8.89 µM
GI50 [9]: 1.88 µM
TGI [9]: 4.64 µM
GI50 [10]: 1.92 µM
TGI [10]: 4.07 µM
GI50 [11]: 2.48 µM
TGI [11]: 9.78 µM
GI50 [12]: 3.69 µM
TGI [12]: 64.8 µM
GI50 [13]: 3.11 µM
TGI [13]: 11.6 µM
GI50 [14]: 1.86 µM
TGI [14]: 4.23 µM
GI50 [15]: 2.17 µM
TGI [15]: 5 µM
GI50 [16]: 1.86 µM
TGI [16]: 4.37 µM
GI50 [17]: 2.68 µM
TGI [17]: 11.3 µM
GI50 [18]: 3 µM
TGI [18]: > 100 µM
GI50 [19]: 2.07 µM
TGI [19]: 4.44 µM
GI50 [20]: 3.31 µM
TGI [20]: 11 µM
GI50 [21]: 2.64 µM
TGI [21]: 7.42 µM
GI50 [22]: 1.95 µM
TGI [22]: 4.25 µM
GI50 [23]: 1.87 µM
TGI [23]: 3.9 µM
GI50 [24]: 2.35 µM
TGI [24]: 5.33 µM
GI50 [25]: 2.82 µM
TGI [25]: 10.4 µM
GI50 [26]: 2.31 µM
TGI [26]: 5.52 µM
GI50 [27]: 3.07 µM
TGI [27]: > 100 µM
GI50 [28]: 2.32 µM
TGI [28]: 6.48 µM
GI50 [29]: 2.79 µM
TGI [29]: 9.48 µM
GI50 [30]: 2.15 µM
TGI [30]: 5.78 µM
GI50 [31]: 2.62 µM
TGI [31]: 8.51 µM
GI50 [32]: 3.07 µM
TGI [32]: 15.3 µM
GI50 [33]: 2.8 µM
TGI [33]: 9.72 µM
GI50 [34]: 2.05 µM
TGI [34]: 6.24 µM
GI50 [35]: 1.74 µM
TGI [35]: 3.18 µM
GI50 [36]: 2.38 µM
TGI [36]: 6.31 µM
GI50 [37]: 2.61 µM
TGI [37]: 9.26 µM
GI50 [38]: 2.51 µM
TGI [38]: 6.45 µM
GI50 [39]: 3.1 µM
TGI [39]: 10.3 µM
GI50 [40]: 3.66 µM
TGI [40]: 33.8 µM
GI50 [41]: 3.51 µM
TGI [41]: 12.8 µM
GI50 [42]: 1.82 µM
TGI [42]: 4.65 µM
GI50 [43]: 2.97 µM
TGI [43]: 9.04 µM
GI50 [44]: 2.38 µM
TGI [44]: 5.61 µM
GI50 [45]: 3.45 µM
TGI [45]: 10.5 µM
GI50 [46]: 2.44 µM
TGI [46]: 7.37 µM
GI50 [47]: 2.66 µM
TGI [47]: 7.77 µM
GI50 [48]: 2.68 µM
TGI [48]: 7.59 µM
GI50 [49]: 2.45 µM
TGI [49]: 6.22 µM
GI50 [50]: 3.46 µM
TGI [50]: 11.4 µM
GI50 [51]: 2.22 µM
TGI [51]: 5.2 µM
GI50 [52]: 3 µM
TGI [52]: 10.2 µM
GI50 [53]: 3.51 µM
TGI [53]: 14 µM
GI50 [54]: 12.3 µM
TGI [54]: 75.7 µM
GI50 [55]: 2.44 µM
TGI [55]: 5.78 µM
